pIC50: −log10 of the molar value.
Columns and labels:
[1] = system: hiPSC-CMs (Cor.4U cardiomyocytes); assay: calcium transient-based hiPSC-CM (CTCM) assay with cardiac hazard scoring; details: for arrhythmic (EAD-like) events: tested concentrations of Figure 5; for EAD-like events: control drugs at control concentration (E-4031 30 nM, dofetilide 3 nM, cetirizine 1 μM)
From the text: Fluorescence imaging of intracellular calcium dynamics (i.e., calcium transients) enabled the evaluation of the spontaneous beating properties of hiPSC-CMs (Figure 2A) using the following parameters: (1) calcium transient duration at 90% of decay following the peak amplitude (CTD90), (2) beat rate (BR) representing the number of calcium transients (i.e., beats) per minute, and (3) amplitude (Amp), representing the difference between the minimum and the maximum (peak) calcium signal.
Effects on hiPSC-CMs were evaluated after a 30-min incubation period and normalized against the respective baseline recording, yielding a Δ% change in CTD90, BR, and Amp.
Cells were cultured with Cor.4U culture medium (Ax-M-HC250) in a humidified incubator at 37°C and 5% CO2, with medium being changed once a day. On the day of the experiment, the culture medium was replaced with Tyrode's solution (Sigma, No. T2397) supplemented with 10 mM HEPES together with KCl to represent isokalemic (4.2 mM K^+) conditions.
Briefly, Cal-520 was incubated for 45 min followed by a washout and a 30-min recovery before starting the experiments.
The spontaneous beating activity of hiPSC-CMs was assessed through measurement of the Ca^2+ fluorescence signal integrated over the whole well.
First, the experimental plates were put into the FDSS/μCell to stabilize for 10 min. Next, a baseline recording was run for 3 min followed by compound addition. The effect of a compound was recorded (5-min recording time) around 15 and 30 min after compound addition. CTD90, BR, and Amp were quantified for baseline and 30-min compound effects as the median value of all beats (calcium transients) measured within a 1-min interval of the recording. The recording around 15 min was used only for observation of EADs or fibrillation-like events. EADs were manually monitored and evaluated. Beat stop was defined after 30 min in case BR was <5 beats/min. Wells that temporarily stopped beating during compound addition but recovered at the 30-min time point were not defined as beat stop.
The responses were measured at baseline and at 30 min.

[2] = system: hERG; details: no reference given; read-out: half maximal inhibitory concentration [IC50] on hERG; cited from earlier work
[3] = 30-min incubation, reference drugs
[4] = reference drugs, tested concentrations of Figure 5 (selected to cover the therapeutic free Cmax), 30-min incubation
[5] = 3 nM (2-fold free Cmax), 30-min incubation, control drug over numerous studies
[6] = 0.1 μM, 30-min incubation, control drug over numerous studies, the rest in the high hazard zone
[7] = 5 μM (free Cmax), 30-min incubation, control drug over numerous studies

Question: For CC[C@H]1[C@@H]2C[C@H]3[C@@H]4N(C)c5ccccc5[C@]45C[C@@H]([C@H]2[C@H]5O)N3[C@@H]1O [Ajmaline], which “arrhythmic (EAD-like) events” value ([1]; reference drugs) is on record?
Answer: caused arrhythmic events

Question: Which “effect on CTD90” value [1, 3] does the source give for CCN(CC)CCCN(c1ccccc1)C1Cc2ccccc2C1 [Aprindine] here?
Answer: CTD90 prolongation

Question: Which cardiac hazard label [1, 4] does the source give for CC(C)NCC(O)COc1ccc(CC(N)=O)cc1 (centres unmarked) [Atenolol] here?
Answer: not identified for any potential hazard

Question: Which results are given for COC(=O)C1=C(C)NC(C)=C([N+](=O)[O-])C1c1ccccc1C(F)(F)F (centres unmarked) [BAYK8644]?
Answer: effect on amplitude (Amp) ([1]; 30-min incubation): increase the Amp; cardiac hazard label [1, 4]: high

Question: Which cardiac hazard label [1, 4] does the source give for C[N+](C)(C)CCOC(N)=O [Carbachol] here?
Answer: not identified for any potential hazard

Question: With O=C(O)COCCN1CCN(C(c2ccccc2)c2ccc(Cl)cc2)CC1 (centres unmarked) [Cetirizine] as the compound, how does the “studies identified as no hazard” value ([1]; 1 μM (16-fold free Cmax), 30-min incubation, control drug over numerous studies) read?
Answer: 99%

Question: And the EAD-like events ([1]; 30-min incubation)?
Answer: not observed any EAD-like event

Question: Which cardiac hazard label [1, 4] does the source give for CN(C)CCCC1(c2ccc(F)cc2)OCc2cc(C#N)ccc21 (centres unmarked) [Citalopram] here?
Answer: low

Question: For CC(CCc1ccc(O)cc1)NCCc1ccc(O)c(O)c1 (centres unmarked) [Dobutamine], which “effect on beat rate (BR)” value [1, 3] is on record?
Answer: strong BR increase

Question: And the cardiac hazard label [1, 4]?
Answer: low or high

Question: With CN(CCOc1ccc(NS(C)(=O)=O)cc1)CCc1ccc(NS(C)(=O)=O)cc1 [Dofetilide] as the compound, how does the “studies identified as high hazard” value [1, 5] read?
Answer: 14%

Question: What about the “studies identified as very high hazard” value [1, 5] of the same compound?
Answer: 80%

Question: And the EAD-like events ([1]; 30-min incubation)?
Answer: provoked such EAD-like events

Question: Which “arrhythmic (EAD-like) events” value ([1]; reference drugs) does the source give for COc1ccc(C(=O)Nc2ccccc2CCC2CCCCN2C)cc1 (centres unmarked) [Encainide] here?
Answer: caused arrhythmic events

Question: Which cardiac hazard label ([1]; at 3- to 10-fold the free Cmax) does the source give for CN(C)CCC[C@@]1(c2ccc(F)cc2)OCc2cc(C#N)ccc21 [Escitalopram] here?
Answer: high

Question: Which “effect on CTD90” value [1, 3] does the source give for O=C(Nc1ccc(Oc2ccccc2)cc1)c1cccc([N+](=O)[O-])c1 [ICA-105574] here?
Answer: CTD90 shortening

Question: What about the cardiac hazard label [1, 4] of the same compound?
Answer: hazard identification

Question: For CC(C)NCC(O)c1ccc(O)c(O)c1 (centres unmarked) [Isoprenaline], which “studies identified as low hazard” value [1, 6] is on record?
Answer: 70%

Question: What about the “effect on amplitude (Amp)” value ([1]; 30-min incubation) of the same compound?
Answer: increase the Amp

Question: What about the “effect on beat rate (BR)” value [1, 3] of the same compound?
Answer: strong BR increase

Question: What about the cardiac hazard label [1, 4] of the same compound?
Answer: low or high

Question: With COc1cc2c(cc1OC)CC(=O)N(CCCN(C)C[C@H]1Cc3cc(OC)c(OC)cc31)CC2 [Ivabradine] as the compound, how does the pIC50 [2] read?
Answer: ~5.62

Question: For CC(C)(Oc1ccc(Cl)cc1)C(=O)NC1C2CC3CC1CC(NS(C)(=O)=O)(C3)C2 (centres unmarked) [JNJ-303], which cardiac hazard label [1, 4] is on record?
Answer: cannot be easily detected

Question: What does the source list for CC1(C)Oc2ccc(C#N)cc2[C@@H](N2CCCC2=O)[C@@H]1O [Levcromakalim]?
Answer: effect on CTD90 [1, 3]: CTD90 shortening; cardiac hazard label [1, 4]: potentially hazardous compounds

Question: For CC(=O)c1c(O)c(C)c(O)c(Cc2c(O)c3c(c(C(=O)/C=C/c4ccccc4)c2O)OC(C)(C)C=C3)c1O [Mallotoxin], which “effect on CTD90” value [1, 3] is on record?
Answer: CTD90 shortening

Question: And the cardiac hazard label [1, 4]?
Answer: hazard identification

Question: Which cardiac hazard label [1, 4] does the source give for Cc1cccc(C)c1OCC(C)N (centres unmarked) [Mexiletine] here?
Answer: low or high

Question: With O=C(NCCO[N+](=O)[O-])c1cccnc1 [Nicorandil] as the compound, how does the cardiac hazard label [1, 4] read?
Answer: not shown to have any potential hazard risk

Question: What does the source list for COCCOC(=O)C1=C(C)NC(C)=C(C(=O)OC(C)C)C1c1cccc([N+](=O)[O-])c1 (centres unmarked) [Nimodipine]?
Answer: studies identified as low hazard [1, 6]: 80%; effect on amplitude (Amp) ([1]; 30-min incubation): strongly decrease the Amp

Question: Which cardiac hazard label ([1]; up to the highest tested concentration (100 nM), around the free Cmax) does the source give for Cc1cc2c(s1)Nc1ccccc1N=C2N1CCN(C)CC1 [Olanzapine] here?
Answer: not identified with any hazard

Question: With C[C@@H]1O[C@@H](O[C@H]2C[C@@H](O)[C@]3(CO)[C@H]4[C@H](O)C[C@]5(C)[C@@H](C6=CC(=O)OC6)CC[C@]5(O)[C@@H]4CC[C@]3(O)C2)[C@H](O)[C@H](O)[C@H]1O [Ouabain] as the compound, how does the cardiac hazard label [1, 4] read?
Answer: high

Question: With O=C1NC(=O)C(c2ccccc2)(c2ccccc2)N1 [Phenytoin] as the compound, how does the “studies identified as low hazard” value [1, 7] read?
Answer: 20%

Question: What about the “studies identified as no hazard” value [1, 7] of the same compound?
Answer: 78%

Question: And the “incidence of beat stop (% of wells)” value ([1]; 5 μM, 30-min incubation)?
Answer: ≤ 50%

Question: What about the cardiac hazard label [1, 4] of the same compound?
Answer: low or high

Question: For CC(N/C(=N\C#N)Nc1ccncc1)C(C)(C)C (centres unmarked) [Pinacidil], which “effect on CTD90” value [1, 3] is on record?
Answer: CTD90 shortening

Question: And the cardiac hazard label [1, 4]?
Answer: potentially hazardous compounds

Question: With CCCNCC(O)COc1ccccc1C(=O)CCc1ccccc1 (centres unmarked) [Propafenone] as the compound, how does the “effect on CTD90” value [1, 3] read?
Answer: CTD90 prolongation

Question: Which “effect on CTD90” value [1, 3] does the source give for CCC(=O)O[C@](Cc1ccccc1)(c1ccccc1)[C@H](C)CN(C)C [Propoxyphene] here?
Answer: CTD90 prolongation

Question: For C=C[C@H]1C[N@@]2CC[C@H]1C[C@@H]2[C@@H](O)c1ccnc2ccc(OC)cc12 [Quinidine], which “arrhythmic (EAD-like) events” value ([1]; reference drugs) is on record?
Answer: caused arrhythmic events

Question: What does the source list for O=C(c1ccc(OCCN2CCCCC2)cc1)c1c(-c2ccc(O)cc2)sc2cc(O)ccc12 [Raloxifene]?
Answer: safety margin (tested concentration/free Cmax) at which a hazard was scored ([1]; 3–10 μM, negative control drug): ≥ 2500 fold the free Cmax; concentrations not scored as no hazard ([1]; negative control drug, exception to the no hazard scoring): 3000 to 10000 nM

Question: What does the source list for CC(C)(C)NCC(O)c1ccc(O)c(CO)c1 (centres unmarked) [Salbutamol]?
Answer: effect on beat rate (BR) [1, 3]: strong BR increase; cardiac hazard label [1, 4]: low or high

Question: For O=C1NCCN1CCN1CCC(c2cn(-c3ccc(F)cc3)c3ccc(Cl)cc23)CC1 [Sertindole], which “safety margin (tested concentration/free Cmax) at which very high hazard (arrhythmic events) was scored” value [1] is on record?
Answer: approximately 625 fold the free Cmax

Question: What about the cardiac hazard label ([1]; 1 μM, 30-min incubation) of the same compound?
Answer: very high

Question: Which cardiac hazard label [1, 4] does the source give for CCCCCNC(=N)N/N=C/c1c[nH]c2ccc(OC)cc12 [Tegaserod] here?
Answer: high

Reference: article PMC6294263 (Stem Cell Reports, 2018)
